Entries after “also recorded” stand apart in the source; their conditions may differ. Where two headings read alike, the source gives them in different places.
Experiments:
[1] = in vivo; settings: for concentration at 20 min: brain
Description: Whether inhalation exposure to Δ^9 THC aerosol would elicit pharmacological effects indicative of cannabinoid activity in mice (Compton, D. R., Rice, K. C., De Costa, B. R., Rzdan, R. K., Melvin, L. S., Johnson, M. R., Martin, B. R., Cannabinoid structure-activity relationships: Correlation of receptor binding and in vivo activities, J Pharmacol Exp Ther, 265:218-226 (1993); Little et al., 1988) was determined.
Blood and brain levels of Δ^9-THC were determined as follows. Extraction and LC-MS quantification of Δ^9-THC from whole blood and brain tissue were modified from Lichtman, A. H., Poklis, J. L., Wilson, D. M., Martin, B. R., The pharmacological activity of inhalation exposure to marijuana smoke in mice, Drug Alc Depend, 63:107-116 (2001). Particularly, THC and 2H^3-THC were extracted from brain material which contains a high degree of lipids. Acetonitrile was added to the pelletized solids and stored in a freezer overnight to separate the acetonitrile layer (which contained THC/2H^3-THC) from the aqueous layers. The following day the acetonitrile layer was removed. In the Lichtman et al., study, 2 ml of 9:1 NaOH was added and the sample was vortexed. Four ml of 9:1 hexane:ethyl acetate was added and the sample was vortexed and spun […] for 30 minutes. The vials were then centrifuged at 4,000 rpm […] for 10 minutes. The organic layer was removed and evaporated. Upon drying, a derivatizing agent was added and the sample was vortexed, and each sample analyzed by GC/MS. In the present experimentation, the acetonitrile was instead evaporated to dryness under nitrogen. The material was then resolubilized in 0.1 ml methanol. LC-MS identification was used to quantify Δ^9-THC/2H^3-THC in blood and brain matrices. […] Fifty ng of ^2H3-THC (Radian Corporation, Austin, Tex.) was added to the blood sample, brain homogenate, and calibrators as an internal standard. Following an equilibration period, 2.5 ml of cold acetonitrile (HPLC grade, Fisher Scientific, Raleigh, N.C.) was added drop-wise while vortexing. The samples were then centrifuged (Precision Vari-Hi-Speed Centricone, Precision Scientific Co., Chicago, Ill.) at 2500 rpm for 15 minutes to pelletize solids, then stored in the freezer (−20° C.) overnight, allowing the acetonitrile layer to separate from the aqueous layers. The acetonitrile layer was then removed and evaporated to dryness under nitrogen. The Δ^9-THC/^2H3-THC was then resolubilized in 0.1 ml methanol (HPLC grade, Fisher Scientific).
LC-MS identification was used for quantification of Δ^9-THC and ^2H3-THC in blood and brain matrices using an 85:15 methanol: 1% glacial acetic acid (0.1% formic acid) mobile phase. A guard column was used inline with the standard reverse phase C18 column. The mass spectrometer was run in APCI+mode. Ions analyzed in single ion monitoring mode were 315 for Δ^9-THC and 318 for ^2H3-THC. A calibration curve was constructed for each assay based on linear regression using the peak-area ratios of Δ^9-THC to ^2H3-THC of the extracted calibration samples.

[2] = test system: Spasticity and pain due to spinal cord injury; settings: oral THC (5 mg) or codeine (50 mg); 1 patient; cited from earlier work
[3] = test system: intra ocular pressure; settings: intravenous THC 0.022 or 0.044 mg/kg; ten subjects with normal intra ocular pressure; cited from earlier work
[4] = test system: airways; settings: nebulized micro-aerosol, propylene glycol vehicle; cited from earlier work
[5] = test system: Nausea and emesis due to Cancer chemotherapy; settings: oral 15 mg THC, 116 patients, cited from earlier work
[6] = test system: Nausea and emesis due to Cancer chemotherapy; settings: oral 10 mg/m^2 THC every 3 hours, 5 doses, 15 patients, cited from earlier work
[7] = test system: Spasticity related to multiple sclerosis; settings: 5 or 10 mg THC; 9 patients; cited from earlier work
[8] = test system: Glaucoma; settings: oral 5, 10, 15 and 20 mg THC; 6 glaucoma patients; cited from earlier work
[9] = cited from earlier work
[10] = 10 mg prochloperzine or placebo
[11] = intravenous, bolus, 5 mg (Ohlsson et al., 1980)
[12] = oral, in cookies, 20 mg (Ohlsson et al., 1980)
[13] = oral, sesame oil in gelatin capsules, 2.5, 5, or 10 mg (PDR, 1995)
[14] = smoking, 13 mg (Ohlsson et al., 1980)

CCCCCc1cc(O)c2c(c1)OC(C)(C)[C@@H]1CCC(C)=C[C@@H]21 (relative stereo) [Δ^9 THC, (6aR-trans)-6a,7,8,10a-tetrahydro-6,6,9-trimethyl-3-pentyl-6H-dibenzo[b,d]-pyran-1-ol]
brain levels relative to blood levels ([1]; following inhalation, mice): roughly equivalent; also recorded: equivalent concentrations
brain levels higher than those found in blood ([1]; i.v. administration, mice): approximately two to three
Kp at 20 min ([1]; mouse, brain relative to whole blood, iv): 2 to 3
concentration at 20 min ([1]; mouse, inhaled, 20 actuations): 340 ± 36 ng/g
concentration at 20 min ([1]; mouse, inhaled, 40 actuations): 791 ± 94 ng/g
concentration at 20 min ([1]; mouse, inhaled, 60 actuations): 890 ± 151 ng/g
concentration at 20 min ([1]; mouse, iv, 1 mg/kg): 307 ± 28 ng/g
concentration at 20 min ([1]; mouse, iv, 3 mg/kg): 854 ± 42 ng/g
concentration at 20 min ([1]; mouse, iv, 10 mg/kg): 3310 ± 190 ng/g
effect on spasticity [2]: THC had a beneficial effect
mean decrease of intra ocular pressure [3]: presser by mean of 37%
bronchial and systemic effects [4]: bronchodilation without systemic effects
antiemetic effect compared with placebo [5, 10]: each greater than placebo;
antiemetic effects, THC vs prochlorperazine [5, 10]: Equal antiemetic effects
CNS side effects compared with prochlorperazine ([5]; 10 mg prochloperzine): considerately more CNS
patients with a fair response [6]: excellent response, 40%
plasma THC levels (mean + SD) [6]: THC levels 7.1 ± 6.9 (mean ng/ml
side effects [6]: tachycardia, few other side
patients with a reduction in nausea and vomiting ([6]; THC (17 mg) laced cigarettes if vomiting occurred): 93% patients had a
side effects [7]: treatment, minimal side
spasticity compared to placebo treatment [7]: Decrease in spasticity
appetite [8]: appetite stimulation,
mood [8]: elevated mood
pain [8]: Pain relief
% Dose in Plasma [9, 11]: 100%
Onset of Pharmacological Action [9, 11]: 10 min
Peak Plasma Levels (time) [9, 11]: 3 min
% Dose in Plasma [9, 12]: 4 to 12%
Onset of Pharmacological Action [9, 12]: 120-180 min
Peak Plasma Levels (time) [9, 12]: 60 to 90 min
% Dose in Plasma [9, 13]: 10 to 20%
Onset of Pharmacological Action [9, 13]: 0.5 to 1 hour
Peak Plasma Levels (time) [9, 13]: 120 to 480 min
% Dose in Plasma ([9]; smoking (THC lost to side stream smoke and pyrolysis), 13 mg (Ohlsson et al., 1980)): 8 to 24%
Onset of Pharmacological Action [9, 14]: 10 min
Peak Plasma Levels (time) [9, 14]: 3 min
